Results reported in patent US20230373972A1, “PIPERAZINE DERIVATIVE, PREPARATION METHOD THEREFOR AND USE THEREOF” (Zhejiang Hisun Pharmaceutical Co., Ltd., priority 2020, published 2023).

Tested on: human plasma
Assay: In-vitro anticoagulation on human plasma (APTT kit, coagulation time)
Details: concentration of the compound when the coagulation time (APTT) was prolonged twice
Experimental: The following method was used to determine the in-vitro anticoagulation of the compound of the present invention in the human plasma. In the method, an APTT kit of the MediRox company was used to test. The APTT kit was purchased from MediRox (article number MRX930), and the human plasma was prepared internally.
The preparation of the human plasma was briefly described as follows: human plasma was collected in a blood collection tube containing sodium citrate, and centrifuged at 3,000 rpm for 10 minutes at room temperature, and plasma was collected, and packaged separately and stored at −80° C.
An APTT test process was briefly described as follows: a test compound was dissolved in DMSO to prepare a 10 mM storage solution first, then the test compound was diluted with DMSO by a triple gradient, and a final concentration of the test compound in a reaction system ranged from 217 μM to 0.03 μM. 4 μL, of test compounds at different concentrations diluted with DMSO were added to a centrifuge tube containing 180 μL of plasma, and 4 μL of DMSO was added to a blank group, shaken and mixed evenly, and incubated at 37° C. for 5 minutes. Subsequently, an APTT reagent was placed in a reagent holder according to instrument requirements, the incubated plasma sample was placed in a detection position of a coagulation analyzer, and a coagulation time was determined and recorded (s). With a final concentration of the compound as an abscissa and Ratio (Ratio=TiT0, wherein T0 was a coagulation time of a blank control, and Ti was a coagulation time of a compound to be tested) as an ordinate, a coagulation dose-effect curve was drawn by Graph Pad Prisms, and a concentration of the compound when the coagulation time was prolonged twice was calculated, which was namely a CT2 value, as shown in Table 2.

## Cn1cc2cc(NC(=O)C(Cc3ccn(C4CC4)n3)N3CC(=O)N(c4cc(Cl)ccc4-n4cc(Cl)nn4)CC3=O)ccc2n1 (centres unmarked) [Example 123, 2-(4-(5-chloro-2-(4-chloro-1H-1,2,3-triazol-1-yl)phenyl)-2,5-dioxopiperazin-1-yl)-3-(1-cyclopropyl-1H-pyrazol-3-yl)-N-(2-methyl-2H-indazol-5-yl)propanamide]
  CT2: 12.8 µM

## N#Cc1ccc(NC(=O)C(Cc2ccccc2)N2CC(=O)N(c3cc(Cl)ccc3-n3cnnn3)CC2=O)cc1 (centres unmarked) [Example 16, 2-(4-(5-chloro-2-(1H-tetrazol-1-yl)phenyl)-2,5-dioxopiperazin-1-yl)-N-(4-cyanophenyl)-3-phenylpropanamide]
  CT2: 15.6 µM

## Cn1cc2cc(NC(=O)C(Cc3cccnc3)N3CC(=O)N(c4cc(Cl)ccc4-n4cc(Cl)nn4)CC3=O)ccc2n1 (centres unmarked) [Example 43, 2-(4-(5-Chloro-2-(4-chloro-1H-1,2,3-triazol-1-yl)phenyl)-2,5-dioxopiperazin-1-yl)-N-(2-methyl-2H-indazol-5-yl)-3-(pyridin-3-yl)propanamide]
  CT2: 19.6 µM

## CNC(=O)c1ccc(NC(=O)C(Cc2ccc(F)cc2)N2CC(=O)N(c3cc(Cl)ccc3-n3cc(Cl)nn3)CC2=O)cc1F (centres unmarked) [Example 134, 4-(2-(4-(5-chloro-2-(4-chloro-1H-1,2,3-triazol-1-yl)phenyl)-2,5-dioxopiperazin-1-yl)-3-(4-fluorophenyl)propanamido)-2-fluoro-N-methylbenzamide]
  CT2: 19.4 µM

## Cn1cc(CC(C(=O)Nc2ccc3nn(C)cc3c2)N2CC(=O)N(c3cc(Cl)ccc3-n3cc(Cl)nn3)CC2=O)cn1 (centres unmarked) [Example 131, 2-(4-(5-chloro-2-(4-chloro-1H-1,2,3-triazol-1-yl)phenyl)-2,5-dioxopiperazin-1-yl)-3-(1-methyl-1H-pyrazol-4-yl)-N-(2-methyl-2H-indazol-5-yl)propanamide]
  CT2: 11.5 µM

## CNC(=O)c1ccc(NC(=O)C(Cc2ccccc2)N2CC(=O)N(c3cc(Cl)ccc3-n3cc(Cl)nn3)CC2=O)cc1F (centres unmarked) [Example 42, 4-(2-(4-(5-Chloro-2-(4-chloro-1H-1,2,3-triazol-1-yl)phenyl)-2,5-dioxopiperazin-1-yl)-3-phenylpropanamido)-2-fluoro-N-methylbenzamide]
  CT2: 16.3 µM

## COCCC(C(=O)Nc1ccc2nn(C)cc2c1)N1CC(=O)N(c2cc(Cl)ccc2-n2cnnn2)CC1=O (centres unmarked) [Example 32, 2-(4-(5-Chloro-2-(1H-tetrazol-1-yl)phenyl)-2,5-dioxopiperazin-1-yl)-4-methoxy-N-(2-methyl-2H-indazol-5-yl)butanamide]
  CT2: 6.3 µM

## Cn1cc2cc(NC(=O)C(CC3CCC3)N3CC(=O)N(c4cc(Cl)ccc4-n4cc(Cl)nn4)CC3=O)ccc2n1 (centres unmarked) [Example 116, 2-(4-(5-chloro-2-(4-chloro-1H-1,2,3-triazol-1-yl)phenyl)-2,5-dioxopiperazin-1-yl)-3-cyclobutyl-N-(2-methyl-2H-indazol-5-yl)propanamide]
  CT2: 14.0 µM

## O=C(Nc1ccc2ccnn2c1)C(Cc1ccccc1)N1CC(=O)N(c2cc(Cl)ccc2-n2cnnn2)CC1=O (centres unmarked) [Example 22, 2-(4-(5-Chloro-2-(1H-tetrazol-1-yl)phenyl)-2,5-dioxopiperazin-1-yl)-3-phenyl-N-(pyrazolo[1.5-a]pyridin-6-yl)propanamide]
  CT2: 16.0 µM

## Cn1cc2cc(NC(=O)C(CCOC(C)(C)C)N3CC(=O)N(c4cc(Cl)ccc4-n4cc(Cl)nn4)CC3=O)ccc2n1 (centres unmarked) [Example 122, 4-(tert-butoxy)-2-(4-(5-chloro-2-(4-chloro-1H-1,2,3-triazol-1-yl)phenyl)-2,5-dioxopiperazin-1-yl)-N-(2-methyl-2H-indazol-5-yl)butanamide]
  CT2: 18.7 µM

## Cn1cc2cc(NC(=O)C(CC3CCC3)N3CC(=O)N(c4cc(Cl)ccc4-n4cnnn4)CC3=O)ccc2n1 (centres unmarked) [Example 39, 2-(4-(5-Chloro-2-(1H-tetrazol-1-yl)phenyl)-2,5-dioxopiperazin-1-yl)-3-cyclobutyl-N-(2-methyl-2H-indazol-5-yl)propanamide]
  CT2: 12.7 µM

## NC(=O)c1ccc(NC(=O)C(Cc2ccc(F)cc2)N2CC(=O)N(c3cc(Cl)ccc3-n3cc(Cl)nn3)CC2=O)cc1F (centres unmarked) [Example 135, 4-(2-(4-(5-chloro-2-(4-chloro-1H-1,2,3-triazol-1-yl)phenyl)-2,5-dioxopiperazin-1-yl)-3-(4-fluorophenyl)propanamido)-2-fluorobenzamide]
  CT2: 19.2 µM

## Cn1cc2cc(NC(=O)C(Cc3ccn(C(F)F)n3)N3CC(=O)N(c4cc(Cl)ccc4-n4cc(Cl)nn4)CC3=O)ccc2n1 (centres unmarked) [Example 132, 2-(4-(5-chloro-2-(4-chloro-1H-1,2,3-triazol-1-yl)phenyl)-2,5-dioxopiperazin-1-yl)-3-(1-(difluoromethyl)-1H-pyrazol-3-yl)-N-(2-methyl-2H-indazol-5-yl)propanamide]
  CT2: 12.7 µM

## [2H]C([2H])([2H])n1ccc(CC(C(=O)Nc2ccc3nn(C)cc3c2)N2CC(=O)N(c3cc(Cl)ccc3-n3cc(Cl)nn3)CC2=O)n1 (centres unmarked) [Example 133, 2-(4-(5-chloro-2-(4-chloro-1H-1,2,3-triazol-1-yl)phenyl)-2,5-dioxopiperazin-1-yl)-N-(2-methyl-2H-indazol-5-yl)-3-(1-(methyl-d3)-1H-pyrazol-3-yl)propanamide]
  CT2: 14.8 µM

## Cn1cc2cc(NC(=O)C(Cc3cccc(F)c3)N3CC(=O)N(c4cc(Cl)ccc4-n4cc(Cl)nn4)CC3=O)ccc2n1 (centres unmarked) [Example 46, 2-(4-(5-Chloro-2-(4-chloro-1H-1,2,3-triazol-1-yl)phenyl)-2,5-dioxopiperazin-1-yl)-3-(3-fluorophenyl)-N-(2-methyl-2H-indazol-5-yl)propanamide]
  CT2: 19.1 µM

## CNC(=O)c1ccc(NC(=O)C(Cc2ccccc2)N2CC(=O)N(c3cc(Cl)ccc3-n3cnnn3)CC2=O)cn1 (centres unmarked) [Example 29, 5-(2-(4-(5-Chloro-2-(1H-tetrazol-1-yl)phenyl)-2,5-dioxopiperazin-1-yl)-3-phenylpropanamido)-N-methylpicolinamide]
  CT2: 6.7 µM

## Cn1cc2cc(NC(=O)C(Cc3ccncc3)N3CC(=O)N(c4cc(Cl)ccc4-n4cc(Cl)nn4)CC3=O)ccc2n1 (centres unmarked) [Example 105, 2-(4-(5-chloro-2-(4-chloro-1H-1,2,3-triazol-1-yl)phenyl)-2,5-dioxopiperazin-1-yl)-N-(2-methyl-2H-indazol-5-yl)-3-(pyridin-4-yl)propanamide]
  CT2: 10.1 µM
